Measured values as given in patent US9945845B2, “Methods of screening using amphibians” (priority 2009, dated 2018).
Entries after “also recorded” stand apart in the source; their conditions may differ. Like-named read-outs stand apart in the source and are kept apart here.

Key:
[1] = tested on: Xenopus embryos; details: for Lethality: — = no stage of lethality given; for Embr. phen.: embryonic phenotype in the primary screen; for Type of edema Ventral: ‡ = edemas also detected in the gut
Protocol: 10-μl aliquots of the chemicals were transferred from the mother plates with a liquid handling robot (Aquarius, Tecan) into 96-well tissue culture plates to generate diluted stock plates (2 mM in DMSO; 50 μl final volume). […] Once embryos reached stage 31 (37 hpf), 10-μl aliquots of the diluted chemicals were added to the wells. […] Negative control wells contained embryos in screening medium and 0.1×MMR only. Embryos were treated with the chemicals in a humidified incubator at 23° C. over a timeframe of 4 days. Embryos were manually scored for the presence of edema or other morphological phenotypes using a teaching dissecting microscope (SV6; Carl Zeiss). Two investigators performed separately the scoring daily at stages 39 (56 hpf), 41 (76 hpf), 45 (98 hpf), and 47 (120 hpf). Dead embryos were removed and 100 μl of water was added daily to each well to compensate for fluid evaporation. […] For imaging at the end of the experiments. Xenopus tadpoles were anesthetized with 0.05% tricaine (Sigma #A5040) in 0.1×MMR. Images were captured using a stereomicroscope (SteREO Lumar V12; Carl Zeiss) equipped with a digital camera (AxioCam Color; Carl Zeiss).
Xenopus late tailbud embryos at stage 31 (37 hpf) were selected for compound treatment. […] Embryos were arrayed into 48-well dishes (five per well) and treated with test compounds at a concentration of 20 μM in the presence of 1% DMSO. […] All 48-well dishes also contained replicates of negative controls (1% DMSO). Embryos were monitored daily over a period of four days for edema formation. In addition, drug-induced lethality and other externally visible phenotypes were scored. On average, 320 compounds were screened per week.

[2] = tested on: blood vessel development and/or lymphangiogenesis in Xenopus embryos; type: in vivo, Xenopus laevis; details: for blood vessel development phenotype (apj expression, in words): 20 μM from stage 31, fixed at stage 35/36; for ISV phenotype: intersomitic vessels; for PCV phenotype: posterior cardinal vein; for VVN phenotype: vitelline vein network; for lymph vessel development phenotype (vegfr3 expression, in words): 20 μM from stage 31, fixed at stage 42; for ALH phenotype: anterior lymph heart; for ALS phenotype: anterior lymph sac; for PLV phenotype: posterior lymph vessels
Protocol: All chemicals were purchased from Sigma and 10-mM stock solutions in DMSO were prepared. Chemicals were used at a final concentration of 20 μM in screening medium to treat homozygous albino Xenopus embryos, which lack natural pigmentation. Chemical treatments of embryos (n=7 per well) was initiated at stage 31 (37 hpf) and terminated at stages 35/36 (50 hpf) or 42 (80 hpf). Embryos were fixed in 4% paraformaldehyde and processed for whole mount in situ hybridization.
Where albino embryos were used, the bleaching step was omitted. Semi-automated whole mount in situ hybridizations were performed using the Biolane HTI machine (Hölle & Hüttner AG, Germany). […] Images were captured using a stereomicroscope (SteREO Lumar V12; Carl Zeiss) equipped with a digital camera (AxioCam Color; Carl Zeiss). Composite figures were organized and labeled using Adobe Photoshop CS2 and Adobe Illustrator CS software.
Edema formation or late-stage lethality may result from excretory system defects, (cardio)vascular and/or lymphatic vascular pathologies. […] Embryos were fixed for in situ hybridization either at stage 35/36 to analyze vasculogenesis and intersomitic vein angiogenesis defects or at stage 42 to evaluate possible defects in lymph vessel development (FIGS. 3-5).

[3] = compounds causing lethality, 20 μM, 1% DMSO, treatment from stage 31, Nieuwkoop & Faber stage
[4] = compounds causing edema, 20 μM, 1% DMSO, treatment from stage 31, scored to stage 47
[5] = onset of edema, 20 μM, 1% DMSO, treatment from stage 31, Nieuwkoop & Faber stage
[6] = compounds causing cytotoxicity, 20 μM, 1% DMSO, treatment from stage 31, Nieuwkoop & Faber stage
[7] = onset of pigmentation defects, 20 μM, 1% DMSO

Clc1ccc(C(c2ccc(Cl)cc2)n2cc[n+](CC(OCc3ccc(Cl)cc3Cl)c3ccc(Cl)cc3Cl)c2)cc1 (stereo not drawn) [Calmidazolium chloride]
Lethality (NF) [1, 3]: 37/38
blood vessel development phenotype (apj expression, in words) [2]: promoting ectopic, premature angiogenesis; also recorded: ectopic sprouting phenotype was even more pronounced
ISV phenotype ([2]; Xenopus embryos): ectopic
PCV phenotype ([2]; Xenopus embryos): normal
VVN phenotype ([2]; Xenopus embryos): hyperplastic

Cc1cc(N)c2ccccc2[n+]1CCCCCCCCCC[n+]1c(C)cc(N)c2ccccc21.[Cl-].[Cl-] [Dequalinium dichloride, 1,1′-Decamethylenebis(4-aminoquinaldinium) dichloride]
Lethality (NF) [1, 4]: 39 NF
Type of edema Pericordial ([1]; embryonic stage): 39 embryonic stages according to Nieuwkoop and Faber (NF)
Lethality ([1]; embryonic stage): 39 embryonic stages according to Nieuwkoop and Faber (NF)
lymph vessel development phenotype (vegfr3 expression, in words) [2]: poorly developed, stunted lymphatics emerging from the ALS and ALH and hypoplastic PLV
Blood vessel phenotype ([2]; Xenopus embryos): normal
ALH phenotype ([2]; Xenopus embryos): stunted
ALS phenotype ([2]; Xenopus embryos): stunted
PLV phenotype ([2]; Xenopus embryos): hypoplastic

Cc1ccc(Cl)c(Nc2ccccc2C(=O)[O-])c1Cl.[Na+] [Meclotenamic acid sodium]
Embr. phen. [1]: EDE
ISV phenotype ([2]; Xenopus embryos): impaired
PCV phenotype ([2]; Xenopus embryos): hypoplastic
VVN phenotype ([2]; Xenopus embryos): hypoplastic

CC[C@H](C)C(=O)O[C@H]1CCC=C2C=C[C@H](C)[C@H](CC[C@@H]3C[C@@H](O)CC(=O)O3)[C@H]21 [Mevastatin]
Lethality (NF) [1, 4]: 45 NF
Embr. phen. [1]: EDE
Type of edema Pericordial ([1]; embryonic stage): 35/36
Lethality ([1]; embryonic stage): 45 embryonic stages according to Nieuwkoop and Faber (NF)
Type of edema Ventral ([1]; embryonic stage): 41/42
Onset (NF) [1, 5]: 35/36
lymph vessel development phenotype (vegfr3 expression, in words) [2]: lymphangiogenesis was largely suppressed
Blood vessel phenotype ([2]; Xenopus embryos): normal
ALH phenotype ([2]; Xenopus embryos): impaired
ALS phenotype ([2]; Xenopus embryos): impaired
PLV phenotype ([2]; Xenopus embryos): hypoplastic

O=C1C(SCCO)=C(SCCO)C(=O)c2ccccc21 [NSC 95397, 2,3-bis[(2-Hydroxyethyl)thio]-1,4-naphthoquinone]
Lethality (NF) [1, 3]: 40 NF
ISV phenotype ([2]; Xenopus embryos): impaired
PCV phenotype ([2]; Xenopus embryos): hypoplastic
VVN phenotype ([2]; Xenopus embryos): hypoplastic

CC(C)[C@H](CO)Nc1nc(Nc2cccc(Cl)c2)c2ncn(C(C)C)c2n1 [Purvalanol A]
Lethality (NF) [1, 3]: 41/42
Embr. phen. [1]: LET
blood vessel development phenotype (apj expression, in words) [2]: only interfered with the assembly of the VVN
Lymphatic phenotype ([2]; Xenopus embryos): normal
ISV phenotype ([2]; Xenopus embryos): normal
PCV phenotype ([2]; Xenopus embryos): normal
VVN phenotype ([2]; Xenopus embryos): hypoplastic

O=C(O)c1ccccc1Nc1cccc(OCc2ccc3ccccc3n2)c1 [SR 2640, 2-[[3-(2-Quinolinylmethoxy)phenyl]amino]-benzoic acid]
Lethality (NF) [1, 6]: 32 NF

C[n+]1cc2c3c(ccc2c2ccc4cc5c(cc4c21)OCO5)OCO3.[Cl-] [Sanguinarine chloride, 13-Methyl-[1,3]benzodioxolo[5,6-c]-1,3-dioxolo[4,5-i]phenanthridinium chloride]
Lethality (NF) [1, 6]: 32 NF

CCN1/C(=C/C(C)=O)Sc2ccc(OC)cc21 [TG003, (Z)-1-(3-Ethyl-5-methoxy-2,3-dihydrobenzothiazol-2-ylidene)-propan-2-one]
Lethality (NF) [1, 3]: 40 NF

C/C(=C\c1ccc(C(=O)O)cc1)c1ccc2c(c1)C(C)(C)CCC2(C)C [TTNPB]
Lethality (NF) [1, 4]: 45 NF
Type of edema Proctodeal ([1]; embryonic stage): 41/42
Type of edema Pronephric ([1]; embryonic stage): 39 embryonic stages according to Nieuwkoop and Faber (NF)
Type of edema Cerebral ([1]; embryonic stage, + = cerebral edema extending dorso-anteriorly and displacing the eyes): 41/42+
Lethality ([1]; embryonic stage): 45 embryonic stages according to Nieuwkoop and Faber (NF)
Type of edema Ventral ([1]; embryonic stage): 41/42
Onset (NF) [1, 5]: 39 NF

C/C=C(/C)C(=O)O[C@H]1C(C)=C2[C@H]([C@@H]1OC(=O)CCCCCCC)[C@@](C)(OC(C)=O)C[C@H](OC(=O)CCC)[C@@]1(O)[C@H]2OC(=O)[C@@]1(C)O [Thapsigargin]
Lethality (NF) [1, 6]: 32 NF

CC(C)(C)c1cc(C=C(C#N)C#N)cc(C(C)(C)C)c1O [Tyrphostin A9, [[3,5-bis(1,1-Dimethylethyl)-4-hydroxyphenyl]methylene]-propanedinitrile]
Lethality (NF) [1, 6]: 32 NF

CC(C)(C)c1cc(C=C(C#N)C(N)=S)cc(C(C)(C)C)c1O [Tyrphostin AG 879, alpha-cyano-(3,5-di-t-butyl-4-hydroxy)thiocinnamide]
Lethality (NF) [1, 6]: 32 NF

C#C[C@]1(O)CC[C@H]2[C@@H]3CCC4=Cc5nc6nc7ccccc7n6cc5C[C@]4(C)[C@H]3CC[C@@]21C [WIN 62,577, 17-beta-Hydroxy-17-alpha-ethynyl-delta-4-androstano(3,2-b)pyrimido(1,2-a)benzimidazole]
Lethality (NF) ([1]; compounds causing pigmentation defects, 20 μM, scored to stage 47): 42 NF
Onset (NF) [1, 7]: 33/34

COC[C@H]1OC(=O)c2coc3c2[C@@]1(C)C1=C(C3=O)[C@@H]2CCC(=O)[C@@]2(C)C[C@H]1OC(C)=O [Wortmannin from Penicillium funiculosum, Wortmannin]
Lethality (NF) [1, 6]: 33/34

C[C@]12CC[C@@H]3c4ccc(O)cc4CC[C@H]3[C@@H]1CC[C@@H]2O [beta-Estradiol]
Type of edema Periocular ([1]; embryonic stage, * = causing bulging eyes, # = bilateral, causing narrow-set eyes): 42 # embryonic stages according to Nieuwkoop and Faber (NF)
Onset (NF) [1, 5]: 42 NF

CC1(C)CCC2=C(O1)c1ccccc1C(=O)C2=O [beta-Lapachone]
Lethality (NF) [1, 6]: 32 NF

C[C@H](NC(=O)Cc1cc(F)cc(F)c1)C(=O)N[C@H]1N=C(c2ccccc2)c2ccccc2N(C)C1=O [compound E]
edema or other phenotype in compound-treated Xenopus embryos/tadpoles (in words) ([1]; 20 μM, 1% DMSO, treatment from stage 31): potently induces edemas

C[C@]12CC[C@H](O)CC1=CC[C@@H]1[C@@H]2CC[C@]2(C)C(=O)CC[C@@H]12 [trans-Dehydroandrosterone, 5-Androsten-3beta.ol-17-one]
Onset (NF) ([1]; onset of other phenotypic defects, 20 μM, 1% DMSO): 41/42

Dequalinium analog, C-14 linker
Lethality (NF) [1, 6]: 32 NF

Ivermectin
Lethality (NF) [1, 3]: 41/42

R(-)-Propylnorapomorphine hydrochloride
Onset (NF) [1, 7]: 33/34
